In PMC9401487 (Clinical Cancer Research, 2021):

Tested on: patients with advanced solid tumors
Assay: Phase I safety and tolerability
Assay type: in vivo, human
[1] = Cohort 7 (N=6), co-dosing 40 mg QD + carboplatin days 1 and 2
[2] = Cohort 7: 40 mg QD days 1–2 + carboplatin AUC5 day 1, 6 patients
[3] = all 36 patients, ceralasertib + carboplatin

With `C[C@@H]1COCCN1c1cc(C2([S@](C)(=N)=O)CC2)nc(-c2cc[nH]c3nccc2-3)n1` [ceralasertib] the “TEAE Constipation, Grade 1–2” value [1] was 3 (50) patients, n (%), the “TEAE Constipation, Grade ≥3” value [1] was 0 patients, n (%) and the “TEAE Contusion, Grade 1–2” value [1] was 1 (17) patients, n (%). The “TEAE Contusion, Grade ≥3” value [1] was 0 patients, n (%), the “TEAE Cough, Grade 1–2” value [1] was 0 patients, n (%) and the “TEAE Cough, Grade ≥3” value [1] was 0 patients, n (%). The “TEAE Decreased appetite, Grade 1–2” value [1] was 3 (50) patients, n (%), the “TEAE Decreased appetite, Grade ≥3” value [1] was 0 patients, n (%) and the “TEAE Diarrhea, Grade 1–2” value [1] was 1 (17) patients, n (%). The “TEAE Diarrhea, Grade ≥3” value [1] was 0 patients, n (%), the “TEAE Dizziness, Grade 1–2” value [1] was 0 patients, n (%) and the “TEAE Dizziness, Grade ≥3” value [1] was 0 patients, n (%). For the same molecule, the “TEAE Dyspnea, Grade 1–2” value [1] was 0 patients, n (%), the “TEAE Dyspnea, Grade ≥3” value [1] was 0 patients, n (%) and the “TEAE Fatigue, Grade 1–2” value [1] was 4 (67) patients, n (%). The “TEAE Fatigue, Grade ≥3” value [1] was 0 patients, n (%), the “TEAE Hypocalcemia, Grade 1–2” value [1] was 1 (17) patients, n (%) and the “TEAE Hypocalcemia, Grade ≥3” value [1] was 0 patients, n (%). The “TEAE Insomnia, Grade 1–2” value [1] was 0 patients, n (%), the “TEAE Insomnia, Grade ≥3” value [1] was 0 patients, n (%) and the “TEAE Lower respiratory tract infection, Grade 1–2” value [1] was 0 patients, n (%). For the same molecule, the “TEAE Lower respiratory tract infection, Grade ≥3” value [1] was 0 patients, n (%), the “TEAE Nausea, Grade 1–2” value [1] was 5 (83) patients, n (%) and the “TEAE Nausea, Grade ≥3” value [1] was 0 patients, n (%). The “TEAE Neutropenia, Grade 1–2” value [1] was 0 patients, n (%), the “TEAE Neutropenia, Grade ≥3” value [1] was 0 patients, n (%) and the “TEAE Neutrophil count decreased, Grade 1–2” value [1] was 0 patients, n (%). The “TEAE Neutrophil count decreased, Grade ≥3” value [1] was 1 (17) patients, n (%), the “TEAE Platelet count decreased, Grade 1–2” value [1] was 2 (33) patients, n (%) and the “TEAE Platelet count decreased, Grade ≥3” value [1] was 1 (17) patients, n (%). For the same molecule, the “TEAE Pyrexia, Grade 1–2” value [1] was 1 (17) patients, n (%), the “TEAE Pyrexia, Grade ≥3” value [1] was 0 patients, n (%) and the “TEAE Thrombocytopenia, Grade 1–2” value [1] was 0 patients, n (%). The “TEAE Thrombocytopenia, Grade ≥3” value [1] was 0 patients, n (%), the “TEAE Upper respiratory tract infection, Grade 1–2” value [1] was 1 (17) patients, n (%) and the “TEAE Upper respiratory tract infection, Grade ≥3” value [1] was 0 patients, n (%). For the same molecule, the “TEAE Vomiting, Grade 1–2” value [1] was 0 patients, n (%), the “TEAE Vomiting, Grade ≥3” value [1] was 1 (17) patients, n (%) and the “TEAE White blood cell count decreased, Grade 1–2” value [1] was 0 patients, n (%). For the same molecule, the “TEAE White blood cell count decreased, Grade ≥3” value [1] was 0 patients, n (%), the “Number of DLTs” value [2] was “one DLT of grade 4 platelet count decreased” and the “SRC decision (tolerability)” value [2] was “declared safe and well tolerated”. The “Patients who discontinued treatment because of an AE” value (N=36) was 14%, the “TEAE Abdominal pain, Grade 1–2” value (Total (N=36)) was 5 (14) patients, n (%) and the “TEAE Abdominal pain, Grade ≥3” value (Total (N=36)) was 1 (3) patients, n (%). The “TEAE Alanine aminotransferase increased, Grade 1–2” value (Total (N=36)) was 3 (8) patients, n (%), the “TEAE Alanine aminotransferase increased, Grade ≥3” value (Total (N=36)) was 1 (3) patients, n (%) and the “TEAE Anemia, Grade 1–2” value (Total (N=36)) was 11 (31) patients, n (%). The “TEAE Anemia, Grade ≥3” value (Total (N=36)) was 14 (39) patients, n (%), the “TEAE Any AE, Grade 1–2” value (Total (N=36)) was 9 (25) patients, n (%) and the “TEAE Any AE, Grade ≥3” value (Total (N=36)) was 27 (75) patients, n (%). The “TEAE Arthralgia, Grade 1–2” value (Total (N=36)) was 4 (11) patients, n (%), the “TEAE Arthralgia, Grade ≥3” value (Total (N=36)) was 0 patients, n (%) and the “TEAE Aspartate aminotransferase increased, Grade 1–2” value (Total (N=36)) was 3 (8) patients, n (%). The “TEAE Aspartate aminotransferase increased, Grade ≥3” value (Total (N=36)) was 1 (3) patients, n (%), the “TEAE Constipation, Grade 1–2” value (Total (N=36)) was 10 (28) patients, n (%) and the “TEAE Constipation, Grade ≥3” value (Total (N=36)) was 0 patients, n (%). For the same molecule, the “TEAE Contusion, Grade 1–2” value (Total (N=36)) was 4 (11) patients, n (%), the “TEAE Contusion, Grade ≥3” value (Total (N=36)) was 0 patients, n (%) and the “TEAE Cough, Grade 1–2” value (Total (N=36)) was 5 (14) patients, n (%). The “TEAE Cough, Grade ≥3” value (Total (N=36)) was 0 patients, n (%), the “TEAE Decreased appetite, Grade 1–2” value (Total (N=36)) was 8 (22) patients, n (%) and the “TEAE Decreased appetite, Grade ≥3” value (Total (N=36)) was 0 patients, n (%). The “TEAE Diarrhea, Grade 1–2” value (Total (N=36)) was 6 (17) patients, n (%), the “TEAE Diarrhea, Grade ≥3” value (Total (N=36)) was 0 patients, n (%) and the “TEAE Dizziness, Grade 1–2” value (Total (N=36)) was 4 (11) patients, n (%). For the same molecule, the “TEAE Dizziness, Grade ≥3” value (Total (N=36)) was 0 patients, n (%), the “TEAE Dyspnea, Grade 1–2” value (Total (N=36)) was 5 (14) patients, n (%) and the “TEAE Dyspnea, Grade ≥3” value (Total (N=36)) was 0 patients, n (%). For the same molecule, the “TEAE Fatigue, Grade 1–2” value (Total (N=36)) was 16 (44) patients, n (%), the “TEAE Fatigue, Grade ≥3” value (Total (N=36)) was 1 (3) patients, n (%) and the “TEAE Hypocalcemia, Grade 1–2” value (Total (N=36)) was 4 (11) patients, n (%). For the same molecule, the “TEAE Hypocalcemia, Grade ≥3” value (Total (N=36)) was 0 patients, n (%), the “TEAE Insomnia, Grade 1–2” value (Total (N=36)) was 5 (14) patients, n (%) and the “TEAE Insomnia, Grade ≥3” value (Total (N=36)) was 0 patients, n (%). For the same molecule, the “TEAE Lower respiratory tract infection, Grade 1–2” value (Total (N=36)) was 4 (11) patients, n (%), the “TEAE Lower respiratory tract infection, Grade ≥3” value (Total (N=36)) was 1 (3) patients, n (%) and the “TEAE Nausea, Grade 1–2” value (Total (N=36)) was 20 (56) patients, n (%). For the same molecule, the “TEAE Nausea, Grade ≥3” value (Total (N=36)) was 1 (3) patients, n (%), the “TEAE Neutropenia, Grade 1–2” value (Total (N=36)) was 4 (11) patients, n (%) and the “TEAE Neutropenia, Grade ≥3” value (Total (N=36)) was 9 (25) patients, n (%). For the same molecule, the “TEAE Neutrophil count decreased, Grade 1–2” value (Total (N=36)) was 0 patients, n (%), the “TEAE Neutrophil count decreased, Grade ≥3” value (Total (N=36)) was 4 (11) patients, n (%) and the “TEAE Platelet count decreased, Grade 1–2” value (Total (N=36)) was 4 (11) patients, n (%). The “TEAE Platelet count decreased, Grade ≥3” value (Total (N=36)) was 2 (6) patients, n (%), the “TEAE Pyrexia, Grade 1–2” value (Total (N=36)) was 9 (25) patients, n (%) and the “TEAE Pyrexia, Grade ≥3” value (Total (N=36)) was 0 patients, n (%). For the same molecule, the “TEAE Thrombocytopenia, Grade 1–2” value (Total (N=36)) was 12 (33) patients, n (%), the “TEAE Thrombocytopenia, Grade ≥3” value (Total (N=36)) was 13 (36) patients, n (%) and the “TEAE Upper respiratory tract infection, Grade 1–2” value (Total (N=36)) was 4 (11) patients, n (%). The “TEAE Upper respiratory tract infection, Grade ≥3” value (Total (N=36)) was 0 patients, n (%), the “TEAE Vomiting, Grade 1–2” value (Total (N=36)) was 7 (19) patients, n (%) and the “TEAE Vomiting, Grade ≥3” value (Total (N=36)) was 2 (6) patients, n (%). The “TEAE White blood cell count decreased, Grade 1–2” value (Total (N=36)) was 0 patients, n (%), the “TEAE White blood cell count decreased, Grade ≥3” value (Total (N=36)) was 5 (14) patients, n (%) and the “TEAE anemia, any grade, patients” value [3] was 69.4%. For the same molecule, the “TEAE fatigue, any grade, patients” value [3] was 47%, the “TEAE grade ≥3 anemia, patients” value [3] was 39% and the “TEAE grade ≥3 neutropenia, patients” value [3] was 25%. For the same molecule, the “TEAE grade ≥3 thrombocytopenia, patients” value [3] was 36%, the “TEAE nausea, any grade, patients” value [3] was 58% and the “TEAE neutropenia, any grade, patients” value [3] was 36%. For the same molecule, the “TEAE thrombocytopenia, any grade, patients” value [3] was 69.4%, the “AEs with a fatal outcome” value (all cohorts) was “no AEs with a fatal outcome were reported” and the “Clinical chemistry laboratory variables, vital signs, ECG parameters” value (all cohorts) was “No clinically significant findings”. The “Patients with dose modifications” value (cycle 1 and beyond, N=36) was 47%, the “Patients with dose reductions” value (cycle 1 and beyond, N=36) was 25% and the “Patients with treatment interruptions” value (cycle 1 and beyond, N=36) was 31%. For the same molecule, the “MTD dose schedule (concurrent)” value (days 1–2, with carboplatin AUC5, 21-day cycles) was 40 mg once daily, the “MTD dose schedule (sequential)” value (days 4–13, with carboplatin AUC5, 21-day cycles) was 20 mg twice daily and the “Patients who experienced ≥1 TEAE” value (safety set N=36) was 36 patients.
